The record followed here is publication PMC6530997, “Asymmetry in catalysis by Thermotoga maritima membrane-bound pyrophosphatase demonstrated by a nonphosphorus allosteric inhibitor” (Science Advances, 2019).

Assay [1] has as its target T1, TmPPase (Thermotoga maritima, UniProt Q9S5X0).
T1 construct: His; made in house; host or cells: Saccharomyces cerevisiae strain BJ1991
The experiment in a line: TmPPase activity inhibition, molybdenum blue 96-well plate assay. As to conditions: for IC50: purified TmPPase in DDM, 71°C, 2 min; for fold less active / weaker than ATC: IC50 relative to ATC; for activity against TmPPase (in words): SAR discussion. In kind it is biochemical. The text has this: The screening process that led to the discovery of compound 1 (ATC) will be described in more detail elsewhere. Briefly, we tested compounds using a recently developed 96-well plate assay with TmPPase as a model system ([37]). The screening collections included compounds synthesized in our laboratories. The identification of ATC as an inhibitor was followed by the test of analogs 2 to 5. ATC and its analogs were initially developed for their antimicrobial, antiviral, and anticancer activities, as reported elsewhere ([38]).
(§1) TmPPase activity, compound screening, and kinetic experiments were done using the molybdenum blue reaction method in a purified protein solubilized in DDM ([37]). Initial reaction rates of TmPPase were determined using PPi as the substrate and ATC as the inhibitor at varying concentrations. The concentration of MgCl2 and Na4PPi required to maintain 5 mM free Mg^2+ at pH 8.0 was approximated as described previously ([41]). The reaction was done in reaction buffer [60 mM tris-HCl (pH 8.0), 5 mM free Mg^2+, 100 mM KCl, and 10 mM NaCl] at 71°C for 2 min. We chose a 2-min reaction time as it still produces a reaction product in a linear range (fig. S7).

For assay [2], the target named is T1, TmPPase. Put plainly: Kinetic analysis of ATC inhibition of PPi hydrolysis by TmPPase. Format: biochemical. Here is the method: As ATC is a potent inhibitor, we further characterized its effect on the rate of substrate (PPi) hydrolysis using a range of ATC concentrations (0.0 to 12.0 μM). We performed the kinetic assay using PPi concentrations from 0 to 1714 μM at 71°C with a single-point measurement at 2 min (Fig. 4D), having shown that this is within the linear range for initial rates (fig. S7).
The model is a variant on that used by Artukka et al. ([23]) and is required as there is half-of-the-sites reactivity. The sum of squares when fitting the inhibition curves with an ATC monomer (i.e., n = 1 in Fig. 5) is 5268, and the SD of the residuals (Sy.x) is 4.3; when fitting an ATC dimer, the values are 855 and 1.8, respectively. […] This means that ATC binds as a dimer to TmPPase.
as §1
For analysis, we used a variant of Artukka and co-workers’ method ([23]), which assumes that the two active sites in an mPPase dimer interact allosterically, with the addition of inhibitor binding to the two active sites (Fig. 5). E2 represents the dimeric enzyme, S is the substrate (Na4PPi), I is the inhibitor (ATC), and n is the number of ATC molecules bound to the enzyme. KS is a microscopic Michaelis-Menten constant, and kp is the per-site maximum rate for the substrate complex. α is the factor relating the binding of the first substrate molecule (KS) to the binding of the second, β is the factor relating the rate of hydrolysis of the E2S complex (kp) to that of the E2S2 complex, and KI1obs, KI2obs, and KI3obs are the observed inhibition constants for binding to the E2, E2S, and E2S2 complexes.
For the mechanism in Fig. 5 with n = 2 (i.e., only inhibitor dimers bind), the rate Eq. 1 ([42]) is v=(2kp+2βkp[S]/αKs)/2(1+[I]^2/(KI2obs)^2)+(Ks/[S])(1+[I]^2/(KI1obs)^2)+([S]/αKs)(1+[I]^2/(KI3obs)^2) (1) where [S] and [I] correspond to substrate and inhibitor concentrations, respectively, and the equilibrium and Michaelis-type constants are as in Fig. 5. The kinetic data were fit together to obtain all parameter values and their SEs by nonlinear regression as a function of inhibitor (0, 1.0, 2.0, 4.0, 8.0, and 12.0 μM) and substrate (0 to 1714 μM) concentrations using Prism 6.0 (GraphPad Software). Eliminating the KI1 terms had no effect on the overall quality of fit.

The target in assay [3] is PfPPase-VP1 (in membrane) (Plasmodium falciparum, UniProt Q8IKR1). The experiment in a line: Inhibition of PfPPase-VP1 in isolated membranes. Format: biochemical. The source says: (§2) Fig. S6. Effect of ATC on growth of P. falciparum and on PfPPase. (A) Inhibition effect of ATC on PfPPase-VP1 (in membrane) from P. falciparum expressed in insect cell baculovirus expression system (method and further analysis will be described in more detail elsewhere). ATC […]
Sequence of PfPPase-VP1 (in membrane) (Plasmodium falciparum, UniProt Q8IKR1) (Q8IKR1 entry or part of it): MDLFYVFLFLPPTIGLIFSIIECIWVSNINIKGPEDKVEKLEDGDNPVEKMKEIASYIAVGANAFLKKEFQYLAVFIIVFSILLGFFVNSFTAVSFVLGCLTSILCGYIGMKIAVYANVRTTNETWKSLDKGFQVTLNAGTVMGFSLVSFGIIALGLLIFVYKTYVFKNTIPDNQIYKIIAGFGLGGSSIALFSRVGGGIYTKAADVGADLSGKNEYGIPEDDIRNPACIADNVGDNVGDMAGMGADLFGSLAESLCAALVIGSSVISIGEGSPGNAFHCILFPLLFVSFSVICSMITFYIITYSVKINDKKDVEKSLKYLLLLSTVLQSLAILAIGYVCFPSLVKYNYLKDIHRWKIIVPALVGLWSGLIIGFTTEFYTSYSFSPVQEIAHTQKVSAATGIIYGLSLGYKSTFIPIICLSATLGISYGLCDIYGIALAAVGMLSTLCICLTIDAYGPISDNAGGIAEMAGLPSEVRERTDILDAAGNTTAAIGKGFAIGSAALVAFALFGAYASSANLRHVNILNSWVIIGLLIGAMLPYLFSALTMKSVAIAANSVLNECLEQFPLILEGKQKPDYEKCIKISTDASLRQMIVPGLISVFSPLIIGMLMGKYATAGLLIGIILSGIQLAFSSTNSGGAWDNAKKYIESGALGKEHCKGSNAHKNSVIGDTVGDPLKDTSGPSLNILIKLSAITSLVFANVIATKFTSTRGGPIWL
(§3) (B) ATC has no anti-plasmodial […]
(§4) activity up to 100  µM. (C) Anti-plasmodial activity of artemisinin, as a positive control.
(§5) (1 picture or pasted object on this page, not shown here)

Assay [4] concerns PfPPase-VP1 (in membrane). Put plainly: Inhibition of PfPPase-VP1 in isolated membranes. In kind it is biochemical. As to conditions: PfPPase IC50 versus TmPPase IC50.
Description: as §2, §3, §4, §5

Assay [5] relates to Plasmodium falciparum strain 3D7. Put plainly: Anti-plasmodial activity assay (SYBR Green I, 72 h). Format: cell-based. Here is the method:
Size-exclusion chromatography – Multi angle laser light scattering (SEC-MALLS) 50  µg of TmPPase purified in DDM with IDP (1 mM) and IDP+ATC (1 mM each) were run through a Superdex 200 10/300 GL equilibrated with a buffer containing 50 mM MES-NaOH pH 6.5, 50 mM KCl, 5 mM MgCl2, 2 mM DTT and 0.05% DDM using a HPLC-system (Shimadzu).
The eluted samples from the column were analysed using UV-absorbance, refractive index (Optilab rEX, Wyatt) and multi angle laser light scattering (miniDAWN TREOS, Wyatt) detectors and the enzyme molecular mass was calculated using ASTRA software (Wyatt).
Anti-plasmodial activity assay
For the in vitro anti-plasmodial activity assay, Plasmodium falciparum strain 3D7 was maintained in culture as described previously (56). Briefly, parasites were cultured in O+ human erythrocytes at 5% haematocrit in RPMI-1640 medium supplemented with 0.5% Albumax II (Gibco, Carlsbad, CA, USA), 200 μM hypoxanthine (Sigma, St. Louis, MO, USA) and 20 μg ml-1 gentamycin (Gibco). […]
Fifty microliters of each dilution were mixed in a 96-well plate with 150 µl of 2% haematocrit of 0.5% parasitemia (ring stage). After 72 h incubation at 37 °C, the parasite growth was quantified using fluorescent SYBR Green I®-based assay as described (58). The half-maximal inhibitory concentration (IC50) of the test compound was assessed by non-linear regression in Prism 7 (GraphPad Software). […]

Assay [6] addresses T1, TmPPase. Put plainly: Kinetic analysis of ATC inhibition of PPi hydrolysis by TmPPase. In kind it is biochemical. As to conditions: PPi conc. 1721.
The mark [7] stands for this setting: PfPPase-VP1 expressed in insect cell baculovirus system.

Where two headings read alike, the source gives them in different places.

T1 sequence (Q9S5X0 whole entry): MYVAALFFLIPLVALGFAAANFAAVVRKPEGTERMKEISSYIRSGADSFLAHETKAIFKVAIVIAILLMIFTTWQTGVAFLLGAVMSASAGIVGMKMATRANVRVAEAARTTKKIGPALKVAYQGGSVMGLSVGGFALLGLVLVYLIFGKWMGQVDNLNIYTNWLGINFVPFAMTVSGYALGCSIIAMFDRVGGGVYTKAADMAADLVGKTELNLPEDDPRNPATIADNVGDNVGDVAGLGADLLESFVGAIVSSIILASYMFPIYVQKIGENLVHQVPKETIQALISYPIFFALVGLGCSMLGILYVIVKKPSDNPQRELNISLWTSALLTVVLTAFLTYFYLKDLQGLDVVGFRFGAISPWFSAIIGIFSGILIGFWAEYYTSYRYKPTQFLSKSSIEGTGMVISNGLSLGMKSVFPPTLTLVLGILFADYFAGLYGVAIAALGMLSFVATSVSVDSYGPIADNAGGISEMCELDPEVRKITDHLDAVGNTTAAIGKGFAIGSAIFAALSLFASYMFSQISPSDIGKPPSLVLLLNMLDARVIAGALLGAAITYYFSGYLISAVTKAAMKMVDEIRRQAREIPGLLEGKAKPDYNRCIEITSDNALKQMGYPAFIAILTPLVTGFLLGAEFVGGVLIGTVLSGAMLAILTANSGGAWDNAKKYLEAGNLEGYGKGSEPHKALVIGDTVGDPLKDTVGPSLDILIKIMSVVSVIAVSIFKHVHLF

On to `Nc1nc2ccc(CNC(=O)c3cc4cccc(Br)c4[nH]3)cc2s1` [compound 6], for which the IC50 in assay [1] came to 21.4 µM.
Regarding `Nc1nc2ccc(CNC(=O)c3cc4ccccc4[nH]3)cc2s1` [ATC, N-[(2-amino-6-benzothiazolyl)methyl]-1H-indole-2-carboxamide], the IC50 in assay [1] is 1.7 µM; in assay [3] (setting [7]), 83.6 µM; in assay [3] (isolated P. falciparum membranes, preliminary studies), roughly 80 µM; in assay [5] (Plasmodium falciparum, P. falciparum 3D7, 72 h, read-out: anti-plasmodial activity, highest concentration without activity), greater than 100 µM. Further, in assay [2], the mode of inhibition entry is given as “uncompetitive dimeric inhibitor”. Besides, the “fold weaker binding to E2S2 than to E2S” value in assay [2] (KI3obs versus KI2obs) is listed as “about 2.5 fold”. Also, the Hill constant in assay [2] (PPi conc. 35) was found to be 2.8; in assay [2] (PPi conc. 71), 2.8; in assay [2] (PPi conc. 142), 1.9; in assay [2] (PPi conc. 1071) it was 2.2; in assay [2] (PPi conc. 1428) it was 1.9; in assay [2] (PPi conc. not printed (line between 142 and 1071)), 2.2. In assay [6], this compound returned a Hill constant of 2.0. In addition, the Ki was no less than 250 µM in assay [2] (binding to E2 (no substrate), data not shown, read-out: KI1 (mean value when included in the fit)); 3.18 ± 0.15 µM in assay [2] (observed inhibition constant for binding to the E2S2 complex, n = 2 (ATC dimer), read-out: KI3obs); 1.37 ± 0.09 µM in assay [2] (observed inhibition constant for binding to the E2S complex, n = 2 (ATC dimer), read-out: KI2obs). Also, the “binding to E2 (in words)” value in assay [2] (enzyme without substrate) is on record as “does not bind to E2 at concentrations we are able to achieve”. Moreover, the “Hill coefficient for ATC binding” value in assay [2] (substrate concentrations greater than 100 μM) is reported as 2. Also, in assay [2] (very low substrate concentrations (below 100 μM)), the Hill coefficient (as a rule, a measure of the steepness of the concentration-response curve) turned out to be 3. Also, in assay [3] (setting [7]), the logIC50 is listed as 1.9. For the same compound, the “fold lower than in T. maritima test system” value in assay [4] is “at least 40 fold”. Further, in assay [5] (P. falciparum survival assays), the “anti-plasmodial activity (in words)” value was “did not show any anti-plasmodial activity”.
With `Nc1nc2ccc(CNC(=O)c3ccc[nH]3)cc2s1` [compound 5], in assay [1], the “fold less active / weaker than ATC” value is “approximately 10 fold”.
As to `Nc1nc2ccc(CNC(=O)c3nc4ccccc4[nH]3)cc2s1` [compound 9], in assay [1], the “activity against TmPPase (in words)” value is “fully inactive” and the IC50 was greater than 500 µM.
With `Nc1nc2ccc(CNC(=O)c3cccs3)cc2s1` [compound 3], in assay [1], the “activity against TmPPase (in words)” value is “inactive” and the IC50 was greater than 500 µM.
Consider `Nc1nc2ccc(CNC(=O)c3ccccc3)cc2s1` [compound 2], for which, in assay [1], the “activity against TmPPase (in words)” value is “inactive” and the IC50 was greater than 500 µM.
On to `Nc1nc2ccc(CNC(=O)c3ccco3)cc2s1` [compound 4], for which the “fold less active / weaker than ATC” value in assay [1] was “approximately 10 fold”.
